Where two headings read alike, the source gives them in different places.
Assays:
[1] = system: 60 cancer cell lines (NCI 60 cancer cell line series); conditions: cited from earlier work
[2] = system: 60 cancer cell lines (NCI 60 cancer cell line series); test: NCI-DTP in vitro cancer screen, sulforhodamine B (SRB) growth inhibition, 48 hour exposure; assay type: cell-based, human; design: key to sensitivity class Ovarian OVCAR-8 CL6005 / sensitivity class Ovarian SK-OV-3 CL6011 / sensitivity class Prostate DU-145 CL11003 / sensitivity class NSCLC NCI-H522 CL1003 / sensitivity class Ovarian IGROV1 CL6010 / sensitivity class Ovarian OVCAR-4 CL6002 / sensitivity class Prostate PC-3(I) CL11001 / sensitivity class Renal A498 CL9013 / sensitivity class Renal SN12C CL9008: sensitivity class: 1 = Low, 2 = Medium, 3 = High
Procedure, shortened: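 Values come from the NCI-DTP screen database: -log GI50, the concentration giving 50% growth inhibition, derived from SRB cell-mass dose-response curves. Each line seeded at its own density, treated day 1 at five ten-fold-spaced doses in duplicate wells, stained after 48 h.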

In the case of `Sc1ncnc2nc[nH]c12` [6-mercaptopurine], the “-Log (GI50)” value ([1]; Breast BT-549 (CL5013)) is given as 3.9, the “-Log (GI50)” value ([1]; Breast HS-578T CL5006) is given as 4.8 and the “-Log (GI50)” value ([1]; Breast MCF7(I) (CL5001)) is given as 5.8. The “-Log (GI50)” value ([1]; Breast MCF7/ADRr (CL5002)) was 5.5, the “-Log (GI50)” value ([1]; Breast MDA-MB-231 CL5005) was 4.7 and the “-Log (GI50)” value ([1]; Breast MDA-MB-435 (CL5011)) was 5.9. The “-Log (GI50)” value ([1]; Breast MDA-N CL5012) was 5.8, the “-Log (GI50)” value ([1]; Breast T-47D (CL5014)) was 5.4 and the “-Log (GI50)” value ([1]; CNS SF-268 CL12014) was 5.4. The “-Log (GI50)” value ([1]; CNS SF-295 CL12015) was 5.3, the “-Log (GI50)” value ([1]; CNS SF-539 CL12016) was 5.6 and the “-Log (GI50)” value ([1]; CNS SNB-19 (CL12002)) was 3.9. The “-Log (GI50)” value ([1]; CNS SNB-75(I) CL12005) was 5.1, the “-Log (GI50)” value ([1]; CNS U251(I) CL12009) was 4.9 and the “-Log (GI50)” value ([1]; Colon COLO-250 CL4010) was 5.3. For the same compound, the “-Log (GI50)” value ([1]; Colon HCC-2998 (CL4002)) was 5.5, the “-Log (GI50)” value ([1]; Colon HCT-15 CL4015) was 5.4 and the “-Log (GI50)” value ([1]; Colon HCT-116 (CL4003)) was 5.6. The “-Log (GI50)” value ([1]; Colon HT29(I) CL4001) was 5.4, the “-Log (GI50)” value ([1]; Colon KM12 (CL4017)) was 5.1 and the “-Log (GI50)” value ([1]; Colon SW-620 (CL4009)) was 5.2. For the same compound, the “-Log (GI50)” value ([1]; Leukemia CCRF-CEM(I) (CL7003)) was 5.9, the “-Log (GI50)” value ([1]; Leukemia HL-60(I) (CL7008)) was 5.6 and the “-Log (GI50)” value ([1]; Leukemia K562(I) CL7005) was 6.5. The “-Log (GI50)” value ([1]; Leukemia MOLT-4 (CL7006)) was 5.8, the “-Log (GI50)” value ([1]; Leukemia RPMI-8226(I) (CL7010)) was 5.8 and the “-Log (GI50)” value ([1]; Leukemia SR CL7019) was 5.9. For the same compound, the “-Log (GI50)” value ([1]; Melanoma LOX IMVI CL10001) was 6.4, the “-Log (GI50)” value ([1]; Melanoma M14 (CL10014)) was 6.2 and the “-Log (GI50)” value ([1]; Melanoma MALME-3M CL10002) was 5.4. The “-Log (GI50)” value ([1]; Melanoma SK-MEL-2 (CL10005)) was 5.2, the “-Log (GI50)” value ([1]; Melanoma SK-MEL-5 (CL10007)) was 5.1 and the “-Log (GI50)” value ([1]; Melanoma SK-MEL-28 (CL10008)) was 3.5. For the same compound, the “-Log (GI50)” value ([1]; Melanoma UACC-62 (CL10020)) was 5.8, the “-Log (GI50)” value ([1]; Melanoma UACC-257 (CL10021)) was 4.8 and the “-Log (GI50)” value ([1]; NCSLC NCI-H522 CL1003) was 5.8. For the same compound, the “-Log (GI50)” value ([1]; NSCLC A549/ATCC (CL1004)) was 4.6, the “-Log (GI50)” value ([1]; NSCLC EKVX (CL1008)) was 3.6 and the “-Log (GI50)” value ([1]; NSCLC HOP-62 (CL1026)) was 5.7. The “-Log (GI50)” value ([1]; NSCLC HOP-92 (CL1029)) was 5.6, the “-Log (GI50)” value ([1]; NSCLC NCI-H23(I) CL1001) was 5.4 and the “-Log (GI50)” value ([1]; NSCLC NCI-H226 CL1013) was 4.3. The “-Log (GI50)” value ([1]; NSCLC NCI-H332M CL1017) was 5.1, the “-Log (GI50)” value ([1]; NSCLC NCI-H460 CL1021) was 5.3 and the “-Log (GI50)” value ([1]; Ovarian IGROV1 CL6010) was 5.1. For the same compound, the “-Log (GI50)” value ([1]; Ovarian OVCAR-3 CL6001) was 6.1, the “-Log (GI50)” value ([1]; Ovarian OVCAR-4 CL6002) was 5.1 and the “-Log (GI50)” value ([1]; Ovarian OVCAR-5 CL6003) was 5.1. The “-Log (GI50)” value ([1]; Ovarian OVCAR-8 CL6005) was 5.6, the “-Log (GI50)” value ([1]; Ovarian SK-OV-3 CL6011) was 6.0 and the “-Log (GI50)” value ([1]; Prostate DU-145 CL11003) was 5.6. The “-Log (GI50)” value ([1]; Prostate PC-3(I) CL11001) was 5.4, the “-Log (GI50)” value ([1]; Renal 786-O CL9018) was 5.7 and the “-Log (GI50)” value ([1]; Renal A498 CL9013) was 4.2. The “-Log (GI50)” value ([1]; Renal ACHN CL9023) was 5.2, the “-Log (GI50)” value ([1]; Renal CAKI-1 CL9015) was 5.6 and the “-Log (GI50)” value ([1]; Renal RXF-393 CL9016) was 4.5. For the same compound, the “-Log (GI50)” value ([1]; Renal SN12C CL9008) was 4.6, the “-Log (GI50)” value ([1]; Renal TK10 CL9024) was 5.7 and the “-Log (GI50)” value ([1]; Renal UO-31 CL9004) was 5.2. For the same compound, the “classification of cell line as Low(1), Medium(2) or High(3) sensitivity to compound” value (“classification of cell line” for short) ([2]; Breast BT-549 (CL5013)) was 1, the “classification of cell line” value ([2]; Breast HS-578T CL5006) was 1 and the “classification of cell line” value ([2]; Breast MCF7(I) (CL5001)) was 2. The “classification of cell line” value ([2]; Breast MCF7/ADRr (CL5002)) was 2, the “classification of cell line” value ([2]; Breast MDA-MB-231 CL5005) was 1 and the “classification of cell line” value ([2]; Breast MDA-MB-435 (CL5011)) was 2. The “classification of cell line” value ([2]; Breast MDA-N CL5012) was 2, the “classification of cell line” value ([2]; Breast T-47D (CL5014)) was 2 and the “classification of cell line” value ([2]; CNS SF-268 CL12014) was 2. For the same compound, the “classification of cell line” value ([2]; CNS SF-295 CL12015) was 2, the “classification of cell line” value ([2]; CNS SF-539 CL12016) was 2 and the “classification of cell line” value ([2]; CNS SNB-19 (CL12002)) was 1. For the same compound, the “classification of cell line” value ([2]; CNS SNB-75(I) CL12005) was 2, the “classification of cell line” value ([2]; CNS U251(I) CL12009) was 2 and the “classification of cell line” value ([2]; Colon COLO-250 CL4010) was 2. The “classification of cell line” value ([2]; Colon HCC-2998 (CL4002)) was 2, the “classification of cell line” value ([2]; Colon HCT-15 CL4015) was 2 and the “classification of cell line” value ([2]; Colon HCT-116 (CL4003)) was 2. For the same compound, the “classification of cell line” value ([2]; Colon HT29(I) CL4001) was 2, the “classification of cell line” value ([2]; Colon KM12 (CL4017)) was 2 and the “classification of cell line” value ([2]; Colon SW-620 (CL4009)) was 2. For the same compound, the “classification of cell line” value ([2]; Leukemia CCRF-CEM(I) (CL7003)) was 3, the “classification of cell line” value ([2]; Leukemia HL-60(I) (CL7008)) was 2 and the “classification of cell line” value ([2]; Leukemia K562(I) CL7005) was 3. For the same compound, the “classification of cell line” value ([2]; Leukemia MOLT-4 (CL7006)) was 2, the “classification of cell line” value ([2]; Leukemia RPMI-8226(I) (CL7010)) was 2 and the “classification of cell line” value ([2]; Leukemia SR CL7019) was 3. For the same compound, the “classification of cell line” value ([2]; Melanoma LOX IMVI CL10001) was 3, the “classification of cell line” value ([2]; Melanoma M14 (CL10014)) was 3 and the “classification of cell line” value ([2]; Melanoma MALME-3M CL10002) was 2. The “classification of cell line” value ([2]; Melanoma SK-MEL-2 (CL10005)) was 2, the “classification of cell line” value ([2]; Melanoma SK-MEL-5 (CL10007)) was 2 and the “classification of cell line” value ([2]; Melanoma SK-MEL-28 (CL10008)) was 1. The “classification of cell line” value ([2]; Melanoma UACC-62 (CL10020)) was 2, the “classification of cell line” value ([2]; Melanoma UACC-257 (CL10021)) was 1 and the “classification of cell line” value ([2]; NSCLC A549/ATCC (CL1004)) was 1. For the same compound, the “classification of cell line” value ([2]; NSCLC EKVX (CL1008)) was 1, the “classification of cell line” value ([2]; NSCLC HOP-62 (CL1026)) was 2 and the “classification of cell line” value ([2]; NSCLC HOP-92 (CL1029)) was 2. For the same compound, the “classification of cell line” value ([2]; NSCLC NCI-H226 CL1013) was 1, the “sensitivity class NSCLC NCI-H23(I) CL1001” value ([2]; cell line NSCLC NCI-H23(I), CL1001) was 2 and the “sensitivity class NSCLC NCI-H332M CL1017” value ([2]; cell line NSCLC NCI-H332M, CL1017) was 2. The “sensitivity class NSCLC NCI-H460 CL1021” value ([2]; cell line NSCLC NCI-H460, CL1021) was 2, the “sensitivity class NSCLC NCI-H522 CL1003” value ([2]; cell line NSCLC NCI-H522, CL1003) was 2 and the “sensitivity class Ovarian IGROV1 CL6010” value ([2]; cell line Ovarian IGROV1, CL6010) was 2. For the same compound, the “sensitivity class Ovarian OVCAR-3 CL6001” value ([2]; cell line Ovarian OVCAR-3, CL6001) was 3, the “sensitivity class Ovarian OVCAR-4 CL6002” value ([2]; cell line Ovarian OVCAR-4, CL6002) was 2 and the “sensitivity class Ovarian OVCAR-5 CL6003” value ([2]; cell line Ovarian OVCAR-5, CL6003) was 2. The “sensitivity class Ovarian OVCAR-8 CL6005” value ([2]; cell line Ovarian OVCAR-8, CL6005) was 2, the “sensitivity class Ovarian SK-OV-3 CL6011” value ([2]; cell line Ovarian SK-OV-3, CL6011) was 3 and the “sensitivity class Prostate DU-145 CL11003” value ([2]; cell line Prostate DU-145, CL11003) was 2. For the same compound, the “sensitivity class Prostate PC-3(I) CL11001” value ([2]; cell line Prostate PC-3(I), CL11001) was 2, the “sensitivity class Renal 786-O CL9018” value ([2]; cell line Renal 786-O, CL9018) was 2 and the “sensitivity class Renal A498 CL9013” value ([2]; cell line Renal A498, CL9013) was 1. The “sensitivity class Renal ACHN CL9023” value ([2]; cell line Renal ACHN, CL9023) was 2, the “sensitivity class Renal CAKI-1 CL9015” value ([2]; cell line Renal CAKI-1, CL9015) was 2 and the “sensitivity class Renal RXF-393 CL9016” value ([2]; cell line Renal RXF-393, CL9016) was 1. The “sensitivity class Renal SN12C CL9008” value ([2]; cell line Renal SN12C, CL9008) was 1, the “sensitivity class Renal TK10 CL9024” value ([2]; cell line Renal TK10, CL9024) was 2 and the “sensitivity class Renal UO-31 CL9004” value ([2]; cell line Renal UO-31, CL9004) was 2.
